In ChEMBL document CHEMBL1201862, “PubChem BioAssay data set” (2004):
Several values for one entry are separate records, joined by “and”; a condition that tells them apart may be missing. Equal entries are not always repeated. Structures can show the parent of a compound that is named as a salt. Activity calls are given as the source filed them.

Key:
[1] = Luminescence Cell-Based Dose Response HTS to Identify Activators of Luciferase Translation or Activity in H4 […] Cells. [Related pubchem assays: 1829 (Project Summary), 1814 (Primary HTS)]; assay type: functional
[2] = tested on: H4; assay: Luminescence Cell-Based Dose Response HTS to Identify Activators of 5'UTR Stem-Loop Driven Prion Protein mRNA Translation in H4 Neuroglioblastoma Cells. [Related pubchem assays: 1829 (Project Summary), 1814 (Primary HTS)]; assay type: functional; details: Homo sapiens
[3] = Luminescence Cell-Based Dose Confirmation HTS to Identify Activators of 5'UTR Stem-Loop Driven Alpha-Synuclein mRNA Translation in H4 Neuroglioblastoma Cells. [Related pubchem assays: 1829 (Project Summary), 1814 (Primary HTS)]; assay type: functional
[4] = target: T1, Heat shock factor protein 1 (Mus musculus, UniProt P38532); assay: HSF1 potentiators in luciferase reporter cells, confirmation, cell-based, NIH3T3, luminescence, dose retest (AID 435004); assay type: functional;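 further: stress induced by proteasome inhibitor MG132 added 30 min after compound; luciferase reporter driven by HSF1 response element in NIH3T3 cells; actives raise luminescence as potentiators of the MG132 stress response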
T1 sequence (P38532 whole entry): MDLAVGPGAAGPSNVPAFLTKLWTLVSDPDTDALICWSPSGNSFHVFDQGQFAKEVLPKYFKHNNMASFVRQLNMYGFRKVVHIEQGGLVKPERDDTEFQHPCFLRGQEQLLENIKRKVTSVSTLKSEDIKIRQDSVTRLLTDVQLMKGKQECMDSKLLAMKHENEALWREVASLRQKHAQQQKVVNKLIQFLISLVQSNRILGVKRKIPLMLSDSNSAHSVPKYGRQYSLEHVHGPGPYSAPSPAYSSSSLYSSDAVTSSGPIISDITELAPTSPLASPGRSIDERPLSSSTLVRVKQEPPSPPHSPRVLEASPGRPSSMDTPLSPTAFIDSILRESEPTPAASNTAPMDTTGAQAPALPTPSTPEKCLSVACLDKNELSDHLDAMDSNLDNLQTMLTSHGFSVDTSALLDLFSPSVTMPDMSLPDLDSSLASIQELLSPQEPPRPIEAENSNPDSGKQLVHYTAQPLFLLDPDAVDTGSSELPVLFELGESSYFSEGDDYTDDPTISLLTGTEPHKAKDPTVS

[5] = inhibitors of firefly luciferase expression or activity, dose response, H4 neuroglioma cells, luminescence (AID 1990); assay type: functional, cell-based
[6] = Luminescence Cell-Based Dose Response HTS to Identify Inhibitors of 5'UTR Stem-Loop Driven Prion Protein mRNA Translation in H4 Neuroglioblastoma Cells. [Related pubchem assays: 1827 (Project Summary), 1813 (Primary HTS)]; assay type: functional
[7] = inhibitors of SNCA 5'UTR-driven reporter translation, confirmation, H4 neuroglioma cells, luminescence (AID 1988); assay type: functional, cell-based
[8] = target: Cytochrome P450 2C9 (Homo sapiens, UniProt P11712)
[9] = target: Cytochrome P450 2C19 (Homo sapiens, UniProt P33261); assay: Cytochrome panel assay with activity outcomes. Panel member name: p450-cyp2c19 Compounds with AC50 equal or less than 10 uM are considered active; assay type: functional
[10] = target: Cytochrome P450 3A4 (Homo sapiens, UniProt P08684);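 further: CYP3A4 tested as one member of a cytochrome P450 panel screen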
[11] = HEp-2 cell cytotoxicity, dose response, cytotoxicity control for RSV inhibitor project, HTS (AID 2410); assay type: functional; details: human respiratory syncytial virus
[12] = tested on: H9c2; assay: cells; assay type: functional, cell-based; details: Rattus norvegicus, H9c2, Myocardium;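 further: confirmatory concentration-response retest of ultra-high-throughput screening hits for modulation of myocardial damage; cell death induced by hydrogen peroxide oxidative stress; compound pretreatment for 60 min then peroxide exposure for 2 h; potency is for protecting the cells against peroxide damage rather than for killing them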
[13] = Shn3 3'UTR reporter inhibitors, dose response, cell-based, Clone20 osteoblasts, firefly luciferase, cherry-picked (AID 624132); assay type: functional;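 further: firefly luciferase luminescence from reporter carrying the Shn3 3'UTR in osteoblasts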
[14] = tested on: Streptococcus; assay: Group A Streptococcus viability loss, dose response, counter-screen for streptokinase expression inhibitor project, luminescence, BacTiterGlo (AID 1915); assay type: functional, organism-based;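 further: potency for reduction of bacterial viability or growth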
[15] = target: T2, Streptokinase A (Streptococcus pyogenes serotype M1, UniProt P10520); assay: S. pyogenes streptokinase expression inhibitors, potency, dose response, plasminogen activation absorbance, OD405 (AID 1914); assay type: functional, Streptococcus pyogenes M1 GAS;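 further: secreted streptokinase activity via plasminogen activation per viability signal from cell pellet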
T2 sequence (P10520 whole entry): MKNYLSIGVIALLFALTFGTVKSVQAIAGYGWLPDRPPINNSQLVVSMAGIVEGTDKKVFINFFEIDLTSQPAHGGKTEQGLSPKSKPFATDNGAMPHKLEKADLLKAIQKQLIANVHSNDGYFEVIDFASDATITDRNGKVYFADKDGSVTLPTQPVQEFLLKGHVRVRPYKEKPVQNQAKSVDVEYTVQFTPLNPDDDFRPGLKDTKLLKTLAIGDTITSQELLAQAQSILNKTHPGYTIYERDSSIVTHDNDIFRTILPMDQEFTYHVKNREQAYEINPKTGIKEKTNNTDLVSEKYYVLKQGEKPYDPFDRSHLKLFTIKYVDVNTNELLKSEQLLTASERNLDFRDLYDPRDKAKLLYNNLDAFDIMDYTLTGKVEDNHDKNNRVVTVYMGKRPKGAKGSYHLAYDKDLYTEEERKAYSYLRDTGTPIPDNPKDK

[16] = tested on: Streptococcus sp. 'group A'; assay: growth inhibition of control SK(-) GAS strain, dose response, counter-screen for streptokinase expression inhibitor project, luminescence, kanamycin, BacTiterGlo, confirmation (AID 1900); assay type: functional, organism-based
[17] = target: Paired box protein Pax-8 (Homo sapiens, UniProt Q06710); assay: inhibitors of PAX8-driven TPO luciferase reporter, dose response, RMG-I cells, cherry-pick (AID 687027); assay type: functional, cell-based;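 further: luciferase reporter driven by Pax8 target thyroperoxidase promoter measured by SteadyGlo luminescence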
[18] = target: T3, Cytochrome P450 1A2 (Homo sapiens, UniProt P05177);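 further: PubChem cytochrome P450 panel assay, CYP1A2 panel member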
T3 sequence (P05177 whole entry): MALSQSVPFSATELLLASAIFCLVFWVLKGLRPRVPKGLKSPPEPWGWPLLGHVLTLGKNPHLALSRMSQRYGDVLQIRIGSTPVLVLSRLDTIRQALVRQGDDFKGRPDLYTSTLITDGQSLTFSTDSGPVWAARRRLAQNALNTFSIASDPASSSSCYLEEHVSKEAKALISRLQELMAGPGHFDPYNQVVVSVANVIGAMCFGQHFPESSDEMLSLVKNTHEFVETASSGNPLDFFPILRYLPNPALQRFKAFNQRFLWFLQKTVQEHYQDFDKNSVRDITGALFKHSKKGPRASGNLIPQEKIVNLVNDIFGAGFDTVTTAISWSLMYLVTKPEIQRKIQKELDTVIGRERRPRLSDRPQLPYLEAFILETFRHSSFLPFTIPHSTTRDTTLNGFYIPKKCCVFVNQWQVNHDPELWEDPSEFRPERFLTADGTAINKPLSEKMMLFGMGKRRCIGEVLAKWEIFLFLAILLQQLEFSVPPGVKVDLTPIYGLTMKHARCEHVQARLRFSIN

[19] = target: Cytochrome P450 2D6 (Homo sapiens, UniProt P10635);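 further: CYP2D6 member of a cytochrome P450 panel assay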
Chain of Cytochrome P450 2D6 (P10635 whole entry): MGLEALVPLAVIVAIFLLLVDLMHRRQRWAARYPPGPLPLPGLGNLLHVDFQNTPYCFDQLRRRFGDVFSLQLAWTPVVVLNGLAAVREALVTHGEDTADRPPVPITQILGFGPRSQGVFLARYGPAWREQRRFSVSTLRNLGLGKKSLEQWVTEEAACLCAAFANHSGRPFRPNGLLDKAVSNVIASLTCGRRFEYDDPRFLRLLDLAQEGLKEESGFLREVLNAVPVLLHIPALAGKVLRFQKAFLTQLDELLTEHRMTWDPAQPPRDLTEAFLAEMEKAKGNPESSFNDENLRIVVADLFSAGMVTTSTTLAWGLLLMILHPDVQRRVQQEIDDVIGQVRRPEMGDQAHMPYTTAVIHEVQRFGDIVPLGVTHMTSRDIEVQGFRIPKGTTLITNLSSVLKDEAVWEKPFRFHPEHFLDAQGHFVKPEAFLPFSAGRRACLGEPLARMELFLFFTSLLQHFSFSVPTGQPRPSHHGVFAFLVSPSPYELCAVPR

Chain of Cytochrome P450 2C19 (P33261 whole entry): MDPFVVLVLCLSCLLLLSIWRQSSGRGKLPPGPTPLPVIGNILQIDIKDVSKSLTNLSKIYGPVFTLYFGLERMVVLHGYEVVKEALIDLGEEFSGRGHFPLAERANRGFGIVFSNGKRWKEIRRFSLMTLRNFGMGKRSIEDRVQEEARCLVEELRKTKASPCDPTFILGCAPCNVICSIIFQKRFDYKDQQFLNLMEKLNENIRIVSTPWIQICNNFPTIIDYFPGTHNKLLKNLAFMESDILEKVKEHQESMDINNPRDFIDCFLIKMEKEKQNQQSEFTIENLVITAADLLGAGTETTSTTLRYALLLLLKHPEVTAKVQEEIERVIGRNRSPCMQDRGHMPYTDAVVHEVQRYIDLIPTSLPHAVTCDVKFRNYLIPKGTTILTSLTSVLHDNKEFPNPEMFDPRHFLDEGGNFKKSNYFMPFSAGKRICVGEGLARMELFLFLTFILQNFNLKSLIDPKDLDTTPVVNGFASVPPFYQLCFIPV
Chain of Cytochrome P450 2C9 (P11712 whole entry): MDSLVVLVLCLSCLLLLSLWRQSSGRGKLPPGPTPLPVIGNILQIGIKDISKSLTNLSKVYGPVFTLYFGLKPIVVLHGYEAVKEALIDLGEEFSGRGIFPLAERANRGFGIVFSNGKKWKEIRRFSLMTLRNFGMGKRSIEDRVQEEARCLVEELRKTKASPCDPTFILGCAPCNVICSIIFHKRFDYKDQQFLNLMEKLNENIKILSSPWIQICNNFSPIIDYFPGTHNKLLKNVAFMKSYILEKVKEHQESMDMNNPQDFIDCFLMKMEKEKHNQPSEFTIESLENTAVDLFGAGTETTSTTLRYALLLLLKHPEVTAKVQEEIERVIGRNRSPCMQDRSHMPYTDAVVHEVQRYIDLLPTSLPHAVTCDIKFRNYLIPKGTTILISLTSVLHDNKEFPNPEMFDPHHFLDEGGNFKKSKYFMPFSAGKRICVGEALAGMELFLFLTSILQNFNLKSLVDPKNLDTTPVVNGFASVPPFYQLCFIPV
Chain of Paired box protein Pax-8 (Q06710 whole entry): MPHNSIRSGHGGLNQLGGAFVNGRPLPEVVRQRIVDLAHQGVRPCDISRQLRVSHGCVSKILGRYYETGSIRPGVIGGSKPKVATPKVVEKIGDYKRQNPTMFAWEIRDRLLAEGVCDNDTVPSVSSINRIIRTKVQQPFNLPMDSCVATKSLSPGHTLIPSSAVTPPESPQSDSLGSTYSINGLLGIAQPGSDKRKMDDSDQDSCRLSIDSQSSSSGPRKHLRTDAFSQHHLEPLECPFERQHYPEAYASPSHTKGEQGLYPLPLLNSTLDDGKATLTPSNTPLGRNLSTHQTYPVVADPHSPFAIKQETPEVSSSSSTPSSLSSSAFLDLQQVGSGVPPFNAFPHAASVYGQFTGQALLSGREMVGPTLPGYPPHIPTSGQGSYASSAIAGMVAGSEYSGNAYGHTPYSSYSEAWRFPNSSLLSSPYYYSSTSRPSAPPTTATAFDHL
Chain of Cytochrome P450 3A4 (P08684 whole entry): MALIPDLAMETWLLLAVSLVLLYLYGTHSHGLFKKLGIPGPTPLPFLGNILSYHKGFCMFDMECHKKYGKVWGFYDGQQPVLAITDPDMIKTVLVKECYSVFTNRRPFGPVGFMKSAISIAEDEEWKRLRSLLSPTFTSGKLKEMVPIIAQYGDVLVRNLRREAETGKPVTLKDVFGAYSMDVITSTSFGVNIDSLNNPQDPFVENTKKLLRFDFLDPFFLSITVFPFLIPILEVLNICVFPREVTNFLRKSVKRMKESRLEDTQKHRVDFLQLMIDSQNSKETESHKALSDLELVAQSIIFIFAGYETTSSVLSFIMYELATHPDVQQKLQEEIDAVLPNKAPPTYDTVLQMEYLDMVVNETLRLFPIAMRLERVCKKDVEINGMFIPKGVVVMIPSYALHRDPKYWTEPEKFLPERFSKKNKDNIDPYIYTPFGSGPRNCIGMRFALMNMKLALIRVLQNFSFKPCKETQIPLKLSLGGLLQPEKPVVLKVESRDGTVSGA

CCSc1nnc(-c2c[nH]c3ccccc23)o1
EC50 [1]: 21.1 µM (active) | EC50 [2]: 24.7 µM (inconclusive) | EC50 [3]: 63.9 µM (active)

Brc1ccc2c(c1)C(c1cccnc1)=NNC(c1cccs1)=N2
EC50 [4]: 93.6 µM (active)

CC1=Nc2ccccc2/C1=C/c1nc(-c2ccc(C)s2)oc1O
EC50 [4]: 21.4 µM (active)

CCc1ccc(NC(=O)c2[nH]c(C)c(C(C)=O)c2C)cc1
EC50 [1]: 2.6 µM (active) | EC50 [3]: 1.62 µM (active)

Cc1ccc(C)c(Nc2c([N+](=O)[O-])ccc3nonc23)c1
EC50 [5]: 19.9 µM (active) | EC50 [6]: > 120 µM (not active) | EC50 [7]: 53.7 µM (active)

COC(=O)c1ccccc1NC(=O)CSc1nc(Nc2ccccc2)nc(N2CCOCC2)n1
EC50 [4]: > 260 µM (inactive)

Cc1nc2cncnc2n(Cc2ccc(F)cc2)c1=O
AC50 [8]: 25.1 µM (inconclusive) | AC50 ([9]; read-out: AC50): 39.8 µM (inconclusive) | AC50 [10]: 15.8 µM (inconclusive)

COc1ccc(Br)cc1C(=O)Nc1cccc(NC(=O)c2ccco2)c1
CC50 [11]: 29.1 µM (active) | IC50 [12]: > 79 µM (inactive)

COC(=O)C1=C(C)n2nnnc2NC1c1ccc(Cl)cc1 (configuration not stated)
EC50 [5]: 20.6 µM (active) | EC50 [6]: > 120 µM (not active) | EC50 [7]: > 120 µM (not active)

COc1cc(NC(=O)c2cc3c(Cl)nc4ccccc4c3s2)cc(OC)c1OC
AC50 [13]: 24.4 µM (active)

COc1cc(C(=O)Nc2ccc(S(=O)(=O)N3CCc4ccccc43)cc2)cc(OC)c1OC
EC50 [4]: > 260 µM (inactive)

Nc1c(Cl)cc(C2=NCCn3c2c2ccc([N+](=O)[O-])cc2[n+]3[O-])cc1Cl
EC50 [5]: 14.7 µM (active) | EC50 [6]: > 120 µM (not active) | EC50 [14]: 5.67 µM (active) | EC50 [15]: > 150 µM (not active) | EC50 [16]: 2 µM (active) | EC50 [7]: 8.15 µM (active)

O=C(NCC1CCCO1)C1CCC(=O)N1CCc1ccccc1 (configuration not stated)
AC50 ([9]; read-out: AC50): 7.08 µM (inconclusive)

Cc1ccc(NC(=NOCc2ccc(Cl)cc2Cl)c2nonc2N)c(C)c1
EC50 [4]: > 260 µM (inactive)

CC(=O)OC(C)(C)/C=C/C(=O)[C@](C)(O)C1[C@H](O)C[C@@]2(C)C3CC=C4C(C=C(O[C@@H]5O[C@H](CO)[C@@H](O)[C@H](O)[C@H]5O)C(=O)C4(C)C)[C@]3(C)C(=O)C[C@]12C (some centres not stated)
AC50 [17]: 7.14 µM (active)

OCCN1CCN(c2nc(N3CCCCC3)nc(N3CCCCC3)n2)CC1
AC50 [8]: 15.8 µM (inconclusive) | AC50 ([9]; read-out: AC50): 39.8 µM (inconclusive) | AC50 [10]: 14.1 µM (inconclusive)

Cn1c2ccc(F)cc2c2ncn(CCN3CCOCC3)c(=O)c21
EC50 [4]: > 260 µM (inactive)

C[C@H](NC(=O)[C@@H]1CSC2c3ccccc3C(=O)N21)C(=O)NCCc1ccccc1 (some centres not stated)
EC50 [4]: 248 µM (active)

O=c1c2ccccc2nnn1CSc1ncnc2ccccc12
EC50 [4]: 10.7 µM (active)

CN(C)S(=O)(=O)c1ccc(Cl)c(NC(=O)CN2CCCCCC2)c1
EC50 [5]: > 120 µM (not active) | EC50 [6]: > 120 µM (not active) | EC50 [7]: > 120 µM (not active)

CCn1cnc2c1c(=O)n(Cc1nnc3n1-c1ccccc1SC3)c(=O)n2Cc1ccccc1
EC50 [4]: > 260 µM (inactive)

Nc1ccc(Sc2cc(Cl)nc(N)n2)cc1
EC50 [5]: > 120 µM (not active) | EC50 [6]: > 120 µM (not active) | EC50 [7]: 99.5 µM (active)

O=C(CC(c1ccco1)S(=O)(=O)c1ccccc1)c1ccc(F)cc1 (configuration not stated)
EC50 [4]: > 260 µM (inactive)

C[C@@H]1OC=C2[C@@H](O)[C@H]3O[C@H]3C(=O)[C@]23[C@@H]2O[C@H](C)C(C4=C2[C@@H](O)[C@H]2O[C@@H]2C4=O)[C@@H]13
AC50 [9]: inconclusive

C=CC[C@@H](CC(=O)N[C@H](CO)Cc1ccccc1)C(=O)N[C@H](COC(=O)[C@@H](CC=C)Cc1ccc(F)cc1)Cc1c[nH]c2ccccc12
AC50 [17]: 8.96 µM (active)

CC(=O)Nc1cccc(-c2cc(NC=O)c3ncc(-c4ccc(C(C)=O)cc4)n3c2)c1
IC50 [12]: 11.2 µM (active)

C=CCNC(=S)N/N=C/c1ccc(-c2ccc(Br)cc2)o1
EC50 [4]: 134 µM (active)

CCOC(=O)COc1ccc(/C=C2/S/C(=N/c3ccccc3)N(Cc3cccnc3)C2=O)cc1OC
EC50 [4]: 31.7 µM (active)

COc1nccc(-c2c(-c3ccc(F)cc3)ncn2C2CCC(O)CC2)n1 (configuration not stated)
AC50 [18]: 31.6 µM (inconclusive) | AC50 [8]: 7.94 µM (inconclusive) | AC50 [19]: 12.6 µM (inconclusive) | AC50 ([9]; read-out: AC50): 7.94 µM (inconclusive)

COc1ccc(/C=N/NC(=O)c2ccco2)cc1Cn1nc(C)c([N+](=O)[O-])c1C
EC50 [5]: > 120 µM (not active) | EC50 [6]: > 120 µM (not active) | EC50 [7]: > 120 µM (not active)

Cc1ccc(S(=O)(=O)N/N=C/c2cccn2-c2ccc(Cl)cc2)cc1
AC50 [18]: 12.6 µM (inconclusive) | AC50 [8]: 12.6 µM (inconclusive) | AC50 ([9]; read-out: AC50): 0.0501 µM (inconclusive)

N[C@H](C(=O)O)c1cc(O)cc(O)c1
AC50 [18]: 31.6 µM (inconclusive) | AC50 ([9]; read-out: AC50): 15.8 µM (inconclusive) and 10 µM (inconclusive)

CC(C)NCC(O)COc1cccc2ccccc12 (configuration not stated) [PROPRANOLOL HYDROCHLORIDE]
AC50 [13]: 23.6 µM (active)
